In the assay the test system is H358 cells. The experiment in a line: Inhibition of H358 cell proliferation (CellTiter-Glo 3D, 7 days). Type of assay: cell-based. Conditions: Homo sapiens, 168 h, NCI-H358, 7 days, read-out: IC50 (nM), inhibitory activity on H358 cell proliferation. The method, then:
• (a) The cells were thawed in T75 cell culture flasks:
• (b) When 80-90% cell confluence was achieved, the cells were passaged.
The diluted test compounds were added to a 384-well cell culture plate using a nanoliter pipetting system, and duplicate wells were set. An equal volume of medium was added to the positive control group; an equal volume of DMSO was added to the negative control group. The plate was centrifuged at 1000 rpm at room temperature for 1 min.
The cells were inoculated into a) 384-well culture plate, an equal volume of cells was added to the negative control group, and only an equal volume of medium was added to the positive control group. The plate was centrifuged at 1000 rpm at room temperature for 1 min. The final concentration of DMSO in the final compounds was 0.5%. The plate was incubated in a thermostatic incubator at 37° C. with 5% CO2 for 7 days.
CellTiter-Glo® 3D was added to b) 384-well cell culture plate at 20 μL/well. The plate was shaken at 320 rpm in the dark for 20 min, and incubated at room temperature in the dark for 2 h. The luminescence values were read using an Envision multi-mode microplate reader.
The inhibition rates of the compounds at different concentrations were calculated in Excel, and then inhibition curves were plotted and relevant parameters including minimum inhibition rate, maximum inhibition rate and IC50 were calculated using GraphPad Prism software.
Consider `COCCOc1cc2c(N[C@H](C)c3cccc(C(F)(F)C(C)(C)O)c3C)nc(C)nc2cc1OC` [Example 90, (R)-1,1-Difluoro-1-(3-(1-((7-methoxy-6-(2-methoxyethoxy)-2-methylquinazolin-4-yl)amino)ethyl)-2-methylphenyl)-2-methylpropan-2-ol], for which the IC50 stood at 48.6 nM.
With `COCCOc1cc2c(N[C@H](C)c3cc(C#N)cc(C(F)(F)C(C)(C)O)c3)nc(C)nc2cc1OC` [Example 91, (R)-3-(1,1-Difluoro-2-hydroxy-2-methylpropane)-5-(1-((7-methoxy-6-(2-methoxyethoxy)-2-methylquinazolin-4-yl)amino)ethyl)benzonitrile] the figure was more than 10000 nM; with `COc1cc2nc(C)nc(N[C@H](C)c3cccc(C(F)(F)C(C)(C)O)c3F)c2cc1OCCOC1COC1` [Example 92, (R)-1,1-Difluoro-1-(2-fluoro-3-(1-((7-methoxy-2-methyl-6-(2-(oxetan-3-yloxy)ethoxy)quinazolin-4-yl)amino)ethyl)phenyl)-2-methylpropan-2-ol], 18.2 nM; with `COc1cc2nc(C)nc(N[C@H](C)c3cccc(C(F)(F)C(C)(C)O)c3F)c2cc1OCCOC1CC1` [Example 93, (R)-1-(3-(1-((6-(2-Cyclopropyloxyethoxy)-7-methoxy-2-methylquinazolin-4-yl)amino)ethyl)-2-fluorophenyl)-1,1-difluoro-2-methylpropan-2-ol], 40.9 nM.
Take `[2H]C([2H])([2H])Oc1cc2nc(C)nc(N[C@H](C)c3cccc(C(F)(F)C(C)(C)O)c3F)c2cc1OCCOC` [Example 97, (R)-1,1-Difluoro-1-(2-fluoro-3-(1-((7-deuteratedmethoxy-6-(2-methoxyethoxy)-2-methylquinazolin-4-yl)amino)ethyl)phenyl)-2-methylpro pan-2-ol]: the IC50 came to 15.5 nM.
Then `CCOc1cc2nc(C)nc(N[C@H](C)c3cccc(C(F)(F)C(C)(C)O)c3F)c2cc1OCCOC` [Example 98, (R)-1-(3-(1-((7-Ethoxy-6-(2-methoxyethoxy)-2-methylquinazolin-4-yl)amino)ethyl)-2-fluor ophenyl)-1,1-difluoro-2-methylpropan-2-ol], with 12.8 nM; and `COCCOc1cc2c(N[C@H](C)c3cccc(C(F)(F)C(C)(C)O)c3F)nc(C)nc2cc1OC(C)C` [Example 99, (R)-1,1-Difluoro-1-(2-fluoro-3-(1-((7-isopropoxy-6-(2-methoxyethoxy)-2-methylquinazolin-4-yl)amino)ethyl)phenyl)-2-methylpropan-2-ol], with 20 nM; and `COCCOc1cc2c(N[C@H](C)c3cccc(C(F)(F)C(C)(C)O)c3F)nc(C)nc2cc1-c1cccnc1` [Example 101, (R)-1,1-Difluoro-1-(2-fluoro-3-(1-((6-(2-methoxyethoxy)-2-methyl-7-(pyridin-3-yl)quinazolin-4-yl)amino)ethyl)phenyl)-2-methylpropyl-2-ol], with 15.5 nM.
Then `COCCOc1cc2c(N[C@H](C)c3cccc(C(F)(F)C(C)(C)O)c3F)nc(C)nc2cc1-c1cnn(C)c1` [Example 102, (R)-1,1-Difluoro-1-(2-fluoro-3-(1-((6-(2-methoxyethoxy)-2-methyl-7-(1-methyl-1H-pyrazol-4-yl)quinazolin-4-yl)amino)ethyl)phenyl)-2-methylpropyl-2-ol], with 13.3 nM; and `COCCOc1cc2c(N[C@H](C)c3cccc(C(F)(F)C(C)(C)O)c3F)nc(C)nc2cc1OC1COC1` [Example 103], with 23.5 nM; and `COCCOc1cc2nc(C)nc(N[C@H](C)c3cc(N)cc(C(F)(F)C(C)(C)O)c3)c2cc1OCCOC` [Example 113, (R)-1-(3-Amino-5-(1-((6,7-bis(2-methoxyethoxy)-2-methylquinazolin-4-yl)amino)ethyl)phenyl)-1,1-difluoro-2-methylpropan-2-ol], with 10.4 nM.
Then `COc1cc2nc(C)nc(N[C@H](C)c3cc(N)cc(C(F)(F)C(C)(C)O)c3)c2cc1OCCOc1cccnc1` [Example 115, (R)-1-(3-Amino-5-(1-(7-methoxy-2-methyl-6-(2-(pyridine-3-oxy)ethoxy)quinazolin-4-yl)amino)ethyl)phenyl-1,1-difluoro-2-methylpropan-2-ol], with 9.92 nM; and `COc1cc2nc(C)nc(N[C@H](C)c3cc(N)cc(C(F)(F)C(C)(C)O)c3)c2cc1OCCOC1CC1` [Example 116, (R)-1-(3-Amino-5-(1-((6-(2-cyclopropoxyethoxy)-7-methoxy-2-methylquinazolin-4-yl)amino)ethyl)phenyl)-1,1-difluoro-2-methylpropyl-2-ol], with 4.29 nM; and `COc1cc2nc(C)nc(N[C@H](C)c3cc(N)cc(C(F)(F)C(C)(C)O)c3)c2cc1OCCOC1COC1` [Example 117, (R)-1-(3-Amino-5-(1-((7-methoxy-2-methyl-6-(2-(oxetan-3-yloxy)ethoxy)quinazolin-4-yl)amino)ethyl)phenyl)-1,1-difluoro-2-methylpropyl-2-ol], with 2.65 nM.
As to `COc1cc2nc(C)nc(N[C@H](C)c3cc(N)cc(C(F)(F)C(C)(C)O)c3)c2cc1OCCOC1CC1(F)F` (stereo partly drawn) [Example 118], the IC50 came out at 2.65 nM.
With `COCCOCCOc1cc2c(N[C@H](C)c3cc(N)cc(C(F)(F)C(C)(C)O)c3)nc(C)nc2cc1OC` [Example 119, (R)-1-(3-Amino-5-(1-(7-methoxy-6-(2-(2-methoxyethoxy)ethoxy)-2-methylquinazolin-4-yl)amino)ethylphenyl)-1,1-difluoro-2-methylpropan-2-ol] the figure was 11.5 nM; with `COCC(COC)Oc1cc2c(N[C@H](C)c3cc(N)cc(C(F)(F)C(C)(C)O)c3)nc(C)nc2cc1OC` [Example 122], 15.6 nM.
With `COCCOc1cc2c(N[C@H](C)c3cc(N)cc(C(F)(F)C(C)(C)O)c3)nc(C)nc2cc1-c1cc[nH]n1` [Example 123, (R)-1-(3-Amino-5-(1-((6-(2-methoxyethoxy)-2-methyl-7-(1H-pyrazolyl-3-yl)quinazolin-4-yl)amino)ethyl)phenyl)-1,1-difluoro-2-methylpropan-2-ol] the figure was 32.8 nM.
With `C#Cc1cc2nc(C)nc(N[C@H](C)c3cccc(C(F)(F)C(C)(C)O)c3F)c2cc1OCCOC` [Example 153, (R)-1-(3-(1-(7-ethynyl-6-(2-methoxyethoxy)-2-methylquinazoline-4-amino)ethyl)-2-fluorophenyl)-1,1-difluoro-2-methylpropan-2-ol] the figure was 34.7 nM; with `C#Cc1cc2nc(C)nc(N[C@H](C)c3cccc(C(F)(F)C(C)(C)O)c3F)c2cc1OCCOC1COC1` [Example 157, (R)-1-(3-(1-((7-Ethynyl-2-methyl-6-(2-(oxetan-3-yloxy)ethoxy)quinazolin-4-yl)amino)ethyl)-2-fluorophenyl)-1,1-difluoro-2-methylpropan-2-ol], 15.8 nM.
Turning to `C#Cc1cc2nc(C)nc(N[C@H](C)c3cc(N)cc(C(F)(F)C(C)(C)O)c3)c2cc1OCCOC` [Example 163, (R)-1-(3-Amino-5-(1-((7-ethynyl-6-(2-methoxyethoxy)-2-methylquinazolin-4-yl)amino)ethyl)phenyl)-1,1-difluoro-2-methylpropan-2-ol], the IC50 stood at 14.5 nM.

Source of the values: patent US20240336606A1 (Suzhou Zelgen Biopharmaceuticals Co., Ltd., priority 2020, published 2024).
